The values below come from patent US20050124021A1 (priority 2000, published 2005).

Test [1] deals with recombinant MshB (Rv1170) (Mycobacterium tuberculosis, UniProt P9WJN3). Format: biochemical, M. tuberculosis.
The subject of a further test is M. smegmatis mutant 49. The test is classed as cell-based.
Test [2] has as its target T1, M. tuberculosis MshB (Rv1170) (Mycobacterium tuberculosis, UniProt P9WJN3). The test is classed as biochemical. The following applies: for Deacetylase Specific Activity: pH 7.4.
The test system of test [3] is M. smegmatis mc^2155. The following applies: read-out: H2O2 IC50.
Test [4] relates to M. smegmatis strain 49.
The test system of test [5] is M. smegmatis strain 49. Conditions: read-out: H2O2 IC50; cited from earlier work.
Test [6] has as its system M. smegmatis strain 49::H37Rv A18. Conditions: read-out: H2O2 IC50; cited from earlier work.
In test [7] the target is T2, His-tagged MshB (Mycobacterium tuberculosis, UniProt P9WJN3). Format: biochemical, M. tuberculosis.
T2 sequence (P9WJN3 whole entry, looked up): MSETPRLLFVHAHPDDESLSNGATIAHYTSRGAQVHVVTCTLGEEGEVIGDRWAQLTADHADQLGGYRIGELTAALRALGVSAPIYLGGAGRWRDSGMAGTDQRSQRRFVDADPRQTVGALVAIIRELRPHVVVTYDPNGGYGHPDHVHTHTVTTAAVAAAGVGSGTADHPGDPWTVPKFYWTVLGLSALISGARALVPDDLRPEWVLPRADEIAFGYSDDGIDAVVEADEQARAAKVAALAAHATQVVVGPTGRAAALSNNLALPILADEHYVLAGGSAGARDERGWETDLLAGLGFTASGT
Test [8] addresses T2, His-tagged MshB. The test is classed as biochemical, M. tuberculosis. The source holds these as a separate data set.
The target in test [9] is T1, M. tuberculosis MshB (Rv1170). The test is classed as biochemical.
Test [10] relates to M. smegmatis chemical mutant 164. The test is classed as cell-based.
The next test concerns M. smegmatis mutant TN3. Format: cell-based.
Test [11] concerns M. smegmatis mc^2155. The test is classed as cell-based.

“Also recorded” adds a separate entry of the source.

T1 sequence (P9WJN3 whole entry, looked up): as above
Sequence of recombinant MshB (Rv1170) (P9WJN3 whole entry, looked up): as above

With `c1cnc2c(c1)ccc1cccnc12` [1,10-phenanthroline], in [1], the “Inhibition of the deacetylase reaction” value is “substantially inhibited; also recorded: completely inhibited”.

Take `CC(=O)N[C@H]1C(O)O[C@H](CO)[C@@H](O)[C@@H]1O` (stereo partly shown) [GlcNAc, N-acetylglucosamine]: the “MSH found in cells” value in the test with M. smegmatis mutant 49 is given as “No significant MSH”. Besides, in test [2], the “Fold less active than GlcNAc-Ins as deacetylase substrate” value is listed as 44 fold, the “Relative Rate (deacetylase reaction)” value is 0.023 and the “Deacetylase Specific Activity” value stood at 1.6 ± 1 nmol/min/mg.

What is called IC50 is the concentration that gives 50% inhibition. As to `OO` [H2O2, hydrogen peroxide], the IC50 is 12 mM in the test with M. smegmatis mc^2155 [3]; 1 mM with M. smegmatis strain 49 [5]; 0.5 mM in the test on M. smegmatis strain TN3 (read-out: H2O2 IC50); 1.8 mM in test [6]; 3.5 mM with M. smegmatis strain I64 (read-out: H2O2 IC50). In addition, the “Fold more sensitive to H2O2 than the parent strain” value in the test with M. smegmatis strain 49 [4] is 12 fold; in the test on M. smegmatis strain TN3 it was more than 20 fold. Also, the “Sensitivity to peroxide versus the parent strain” value in the test with M. smegmatis strain I64 is given as “three-fold more sensitive”.

On to `CC(=O)N[C@@H](CS)C(=O)N[C@H]1[C@@H](OC2[C@H](O)[C@H](O)C(O)[C@H](O)[C@H]2O)O[C@H](CO)[C@@H](O)[C@@H]1O` (stereo partly drawn) [MSH, 1-D-myo-inosityl-2-(N-acetylcysteinyl)amido-2-deoxy-α-D-glucopyranoside], for which the “Inhibition of the deacetylase activity” value at His-tagged MshB [7] is given as “effective inhibitor”. For the same compound, at His-tagged MshB [8], the “Concentration that completely inhibits the amidase activity” value is “over 1 mM” and the “Inhibition of the amidase activity” value was “effective inhibitor”. Besides, the “Relative Rate (amidase reaction)” value in [9] was determined as 0.0043. Besides, the “Amidase Specific Activity” value in test [9] (pH 7.4) was 0.3 ± 0.1 nmol/min/mg. In addition, in [2], the “Relative Rate (deacetylase reaction)” value is reported as less than 0.00036, the “Substrate quality for the deacetylase activity” value was “not substrates” and the “Deacetylase Specific Activity” value was less than 0.025 ± 0.012 nmol/min/mg.

As for `N[C@H]1C(O)O[C@H](CO)[C@@H](O)[C@@H]1O` (stereo partly shown) [glucosamine], in the test on M. smegmatis mutant 49, the “MSH found in cells” value is listed as “No significant MSH”.

`N[C@@H](CCC(=O)N[C@@H](CS)C(=O)NCC(=O)O)C(=O)O` [glutathione]: the “Inhibition of the deacetylase activity” value at His-tagged MshB [7] was “lack of inhibition”. The “Inhibition of the amidase activity” value on His-tagged MshB [8] was “lack of inhibition”.

Consider `O[C@H]1[C@H](O)[C@@H](O)[C@H](O)[C@@H](O)[C@H]1O` [inositol], for which the “MSH found in cells” value in the test on M. smegmatis mutant 49 was “No significant MSH”.

Turning to superoxide, the “Killing by superoxide” value in test [10] is “intermediate level of killing”; in the test with M. smegmatis mc^2155 [11], “no significant killing”. Also, in the test on M. smegmatis mutant TN3, the Killed by superoxide is more than 90%.
